Key:
HaCat Human keratinocyte = assay: Secondary cytotoxicity test, HaCat; format: cell-based
Protocol: (§1) Particularly, the cell growth inhibition effect was measured by WST-1 cell proliferation assay [http://www.roche-applied-science.com/PROD_INF/MANUALS/CELL_MAN/apoptosis—087—088.pdf]. The compound of formula 1 was loaded in a 384-well cell culture plate. Three types of glioblastoma multiform cell lines [proneural subtype (559T), mesenchymal subtype (592T), and classical subtype (626T)], normal human astrocytes (NHA), a lung cancer cell line (A549), and a glioblastoma multiform cell line (U87MG) were distributed in the plate at the density of 4.5×10^3 cells/well, and the medium was filled up to make 50 μl per well. At this time, the concentration of the solvent DMSO for the compound of formula 1 was no more than 0.2%. After culturing the cells for 72 hours, 5 mg/ml of WST-1 reagent was added by 5 μl per well, followed by reaction for 3˜4 hours. Then OD450 was measured to investigate the effect of the compound of formula 1 on cell proliferation.
(§2) To investigate the cell growth inhibition effect of the compound of formula 1 of the present invention (azathioprine) in many different cell lines, secondary cytotoxicity test was performed with the cell lines listed in Table 5 by the same manner as described in Example 1.

[1] = tested on: MKN45 Human stomach adenocarcinoma; assay: Secondary cytotoxicity test, MKN45; format: cell-based; conditions: MKN-45
Protocol: as §1, §2

[2] = tested on: MCF-7 Human breast adenocarcinoma; assay: Secondary cytotoxicity test, MCF-7; format: cell-based; conditions: MCF7
Protocol: as §1, §2

[3] = tested on: CCD986SK Human fibroblast; assay: Secondary cytotoxicity test, CCD986SK; format: cell-based; conditions: CCD-986Sk
Protocol: as §1, §2

[4] = tested on: NCI-H23 Human lung adenocarcinoma; assay: Secondary cytotoxicity test, NCI-H23; format: cell-based
Protocol: as §1, §2

[5] = tested on: Hela Human adenocarcinoma; assay: Secondary cytotoxicity test, Hela; format: cell-based
Protocol: as §1, §2

[6] = tested on: HepG2 Human hepatocarcinoma; assay: Secondary cytotoxicity test, HepG2; format: cell-based
Protocol: as §1, §2

[7] = tested on: U2932 Human DLBCL (Diffuse large B-cell lymphoma); assay: Secondary cytotoxicity test, U2932; format: cell-based
Protocol: as §1, §2

[8] = tested on: HCT-116 Human colorectal carcinoma; assay: Secondary cytotoxicity test, HCT-116; format: cell-based
Protocol: as §1, §2

[9] = tested on: PC3 Human prostate adenocarcinoma; assay: Secondary cytotoxicity test, PC3; format: cell-based; conditions: PC-3
Protocol: as §1, §2

[10] = tested on: GBM #4 glioblastoma multiform patient originated cells; assay: Neurosphere formation inhibition, GBM #4; format: cell-based, human; parameters: key: S: strong effect; I: intermediate effect; R: rare effect; conditions: GBM #4, type B (classical), Temodal 20 μM, duration 9 day
Protocol: (§3) Particularly, to investigate neurosphere formation, glioblastoma multiform cells were cultured for a certain time and the cells were distributed again in culture vessels, followed by additional culture. Then, the number of newly generated neurospheres was measured. First, the glioblastoma multiform patient originated cells were sub-cultured, which were distributed in a 96-well plate (20, 50, and 200 cells in 50 μl of culture medium/well). […] Then, the compound of formula 1 (azathioprine) and the compound of Comparative Example 1 (Temodal) were added to 50 μl of cell culture medium with the same concentrations as the above once a week, which were then cultured for 7˜23 days. When neurosphere was formed at least 50 μm in the control group not treated with the compound, the number of neurospheres in each well was counted to compare the neurosphere formation before and after the treatment of the compound of formula 1 (azathioprine) and the compound of Comparative Example 1 (Temodal).
(§4) The glioblastoma multiform cells used in this experiment were classified into 4 types, which are type A, type B, type C, and type D, according to the gene expression pattern. Methylation of MGMT (O6-me-G methyltransferase), the DNA repair protein, was confirmed in each cell line. […]

[11] = tested on: GBM #3 glioblastoma multiform patient originated cells; assay: Neurosphere formation inhibition, GBM #3; format: cell-based, human; parameters: key: S: strong effect; I: intermediate effect; R: rare effect; conditions: GBM #3, type A (proneural), Temodal 20 μM, duration 21 day
Protocol: as §3, §4

[12] = tested on: GBM #6 glioblastoma multiform patient originated cells; assay: Neurosphere formation inhibition, GBM #6; format: cell-based, human; parameters: key: S: strong effect; I: intermediate effect; R: rare effect; conditions: GBM #6, type B (classical), Temodal 20 μM, duration 23 day
Protocol: (§5) Particularly, to investigate neurosphere formation, glioblastoma multiform cells were cultured for a certain time and the cells were distributed again in culture vessels, followed by additional culture. Then, the number of newly generated neurospheres was measured. First, the glioblastoma multiform patient originated cells were sub-cultured, which were distributed in a 96-well plate (20, 50, and 200 cells in 50 μl of culture medium/well). 2, 6, and 20 μM of the compound of formula 1 (azathioprine) and the compound of Comparative Example 1 (Temodal) were treated thereto by 50 μl per well to make the final concentrations of 1, 3, and 10 μM. Then, the compound of formula 1 (azathioprine) and the compound of Comparative Example 1 (Temodal) were added to 50 μl of cell culture medium with the same concentrations as the above once a week, which were then cultured for 7˜23 days. When neurosphere was formed at least 50 μm in the control group not treated with the compound, the number of neurospheres in each well was counted to compare the neurosphere formation before and after the treatment of the compound of formula 1 (azathioprine) and the compound of Comparative Example 1 (Temodal).
(§6) The glioblastoma multiform cells used in this experiment were classified into 4 types, which are type A, type B, type C, and type D, according to the gene expression pattern. […]

[13] = tested on: GBM #2 glioblastoma multiform patient originated cells; assay: Neurosphere formation inhibition, GBM #2; format: cell-based, human; parameters: key: S: strong effect; I: intermediate effect; R: rare effect; conditions: GBM #2, type A (proneural), Temodal 20 μM, duration 15 day
Protocol: as §3, §4

[14] = tested on: GBM #1 glioblastoma multiform patient originated cells; assay: Neurosphere formation inhibition, GBM #1; format: cell-based, human; parameters: key to inhibition of neurosphere formation: S: strong effect; I: intermediate effect; R: rare effect; conditions: GBM #1, type A (proneural), Temodal 20 μM, duration 7 day
Protocol: as §5
The glioblastoma multiform cells used in this experiment were classified into 4 types, which are type A, type B, type C, and type D, according to the gene expression pattern. Methylation of MGMT (O6-me-G methyltransferase), the DNA repair protein, was confirmed in each cell line. At that time, type A [GBM #1, #2, #3] was proneural subtype, type B [GBM #4, #5, #6, #7] was classical subtype, type C [GBM #8] was mesenchymal subtype, and type D [GBM #9, #10] was non-classified glioblastoma multiform.

[15] = tested on: cells of lung cancer with brain metastasis transplanted in the mouse brain; assay: Animal test with cells of lung cancer with brain metastasis, survival; format: in vivo; conditions: azathioprine 2 mg/kg oral every day after day 11, Temodal (TMZ) 65 mg/kg oral 5 days from day 17
Protocol: The cells of lung cancer with brain metastasis were obtained from Samsung Hospital (Seoul) and cultured. The cultured cells (2×10^5/5 μl) were transplanted in the mouse brain. 17 days later, Temodal administration (65 mg/kg, oral administration) began, which continued for 5 days. The compound of formula 1 of the present invention (azathioprine) was co-treated to the mouse by oral-administration at the dose of 2 mg/kg every day after 11 days from the transplantation of the cells of lung cancer with brain metastasis in the mouse brain. Then, the average survival period was investigated.

[16] = tested on: GBM #9 glioblastoma multiform patient originated cells; assay: Neurosphere formation inhibition, GBM #9; format: cell-based, human; parameters: key: S: strong effect; I: intermediate effect; R: rare effect; conditions: GBM #9, type D (non-classified), Temodal 20 μM, duration 21 day
Protocol: as §3, §4

[17] = tested on: GBM #5 glioblastoma multiform patient originated cells; assay: Neurosphere formation inhibition, GBM #5; format: cell-based, human; parameters: key: S: strong effect; I: intermediate effect; R: rare effect; conditions: GBM #5, type B (classical), Temodal 20 μM, duration 21 day
Protocol: as §3, §4

[18] = tested on: GBM #10 glioblastoma multiform patient originated cells; assay: Neurosphere formation inhibition, GBM #10; format: cell-based, human; parameters: key: S: strong effect; I: intermediate effect; R: rare effect; conditions: GBM #10, type D (non-classified), Temodal 20 μM, duration 10 day
Protocol: as §3, §4

[19] = tested on: GBM #8 glioblastoma multiform patient originated cells; assay: Neurosphere formation inhibition, GBM #8; format: cell-based, human; parameters: key: S: strong effect; I: intermediate effect; R: rare effect; conditions: GBM #8, type C (mesenchymal), Temodal 20 μM, duration 15 day
Protocol: as §5, §6

[20] = tested on: glioblastoma multiform cells transplanted in the brain of a mouse; assay: Glioblastoma multiform orthotopic animal model, survival; format: in vivo; conditions: single treatment; for Average Survival Period: Temodal 65 mg/kg oral for 5 days from day 17 after transplantation, control 27 days; for Survival Period Extension Rate (%): vs. untreated control, Temodal 65 mg/kg oral for 5 days from day 17
Protocol: Following experiment was performed to investigate the radiosensitizing effect and chemosensitizing effect of the compound of formula 1 (azathioprine) in the glioblastoma multiform orthotopic animal model.
Particularly, to investigate the resistance against Temodal or radiotherapy in glioblastoma multiform, glioblastoma multiform cells were cultured. The cultured cells (2×10^5/5 μl) were transplanted in the brain of a mouse. 17 days later, the administration of Temodal (65 mg/kg, oral-administration) or radiotherapy (2 Gy) began, which continued for 5 days. The average survival period was investigated. […] For the comparison, the survival period of the group treated with “Avastin”, the well-known anticancer agent, is also presented.
Glioblastoma multiform, glioblastoma multiform cells were cultured. The cultured cells (2×10^5/5 μl) were transplanted in the brain of a mouse. 17 days later, the administration of Temodal (65 mg/kg, oral-administration) or radiotherapy (2 Gy) began, which continued for 5 days. Unlike the above experiment, the compound of formula 1 of the present invention (azathioprine) was co-treated to the mouse by oral-administration at the dose of 20 mg/kg every day after 11 days from the glioblastoma multiform transplantation in the mouse brain. Then, the average survival period was investigated.

[21] = tested on: GBM #7 glioblastoma multiform patient originated cells; assay: Neurosphere formation inhibition, GBM #7; format: cell-based, human; parameters: key: S: strong effect; I: intermediate effect; R: rare effect; conditions: GBM #7, type B (classical), Temodal 20 μM, duration 23 day
Protocol: as §5, §6

`COc1cccc2c1C(=O)c1c(O)c3c(c(O)c1C2=O)C[C@@](O)(C(=O)CO)C[C@@H]3O[C@H]1C[C@H](N)[C@H](O)[C@H](C)O1` [Doxorubicin, reference compound] was tested, and the IC50 (HaCat Human keratinocyte) was 230 nM, the IC50 [1] was 280 nM and the IC50 [2] was 550 nM. For the same compound, the IC50 [3] was 960 nM, the IC50 [4] was 190 nM and the IC50 [5] was 370 nM. It also gave an IC50 [6] of 700 nM, an IC50 [7] of 440 nM and an IC50 [8] of 390 nM. It also gave an IC50 [9] of 350 nM.

With `Cn1nnc2c(C(N)=O)ncn2c1=O` [Temodal, temozolomide] the “inhibition of neurosphere formation” value [10] was “S”, the “inhibition of neurosphere formation” value [11] was “R” and the “inhibition of neurosphere formation” value [12] was “S”. For the same compound, the “inhibition of neurosphere formation” value [13] was “R”, the “inhibition of neurosphere formation” value [14] was “S” and the “Average Survival Period” value [15] was 63 days. For the same compound, the “Survival Period Extension Rate (%)” value [15] was 100-129%, the “inhibition of neurosphere formation” value [16] was “S” and the “inhibition of neurosphere formation” value [17] was “S”. For the same compound, the “inhibition of neurosphere formation” value [18] was “R”, the “inhibition of neurosphere formation” value [19] was “R” and the “Average Survival Period” value [20] was 31 days. The “Survival Period Extension Rate (%)” value [20] was 19% and the “inhibition of neurosphere formation” value [21] was “S”.

In the case of “Avastin: the well-known anticancer agent”, the “Average Survival Period” value [20] is reported as 28 days and the “Survival Period Extension Rate (%)” value [20] is reported as 8%.
